Entries after “also recorded” stand apart in the source; their conditions may differ.
Tests used:
[1] = test system: activated primary human T cells (TCLs); assay: IRES screening (Table 28), Gaussia luciferase LNP-oRNA in activated primary human T cells (TCLs); conditions: protein expression relative to positive control (SEQ ID NO 3282 = 1)
Description: (§1) Exemplary constructs included a 5′ enhanced intron element, a 5′ enhanced exon element, a putative IRES, a coding element encoding Gaussia Luciferase, a 3′ enhanced exon element, and a 3′ enhanced intron element.
(§2) Purified oRNA was nanoprecipitated with lipids to form LNP-oRNA constructs. LNPs were formulated first by creating empty lipid nanoparticles using a Precision Nanosystems Ignite instrument with a “NextGen” mixing chamber. Ethanol phase contained Lipid 39 from Table 10b, DSPC, cholesterol, and DMG-PEG 2000 (Avanti Polar Lipids, Inc., Alabaster, AL) at a molar ratio of 45:9:44:2 was combined with 50 mM sodium acetate buffer at pH 4.5. A 3:1 aqueous to ethanol mixing ratio was used. The empty LNPs were then dialyzed in 1 L of 1×PBS and exchanged 2 times over 18 hours. […] A 3:1 aqueous to empty lipid nanoparticle mixing ratio was used. The LNPs final ionizable lipid to RNA phosphate ratio was at 6.0.
(§3) Primary human skeletal myotubes (MYOs), primary human hepatocytes (PHHs), and activated primary human T cells (TCLs) were treated with formulated LNP-oRNA in triplicate. Protein expression in supernatant was assessed by luminescence measurements 48 hours following transfection.
(§4) Total luminescent signal was normalized across replicate plates to control for plate-wide differences between replicates due to flash assay readout timing. Plates with positive controls having <2× signal over background were excluded from analysis. Background was subtracted based on empty wells. Each test well replicate was normalized to its respective plate control and then the replicates were averaged.
(§5) Measured numbers are normalized to a control (caprine kobuvirus IRES, SEQ ID NO: 3282) and represented as a fold change.

[2] = test system: primary human skeletal myotubes (MYOs); assay: IRES screening (Table 28), Gaussia luciferase LNP-oRNA in primary human skeletal myotubes (MYOs); conditions: protein expression relative to positive control (SEQ ID NO 3282 = 1)
Description: as §1, §2, §3, §4, §5

[3] = test system: primary human hepatocytes (PHHs); assay: IRES screening (Table 28), Gaussia luciferase LNP-oRNA in primary human hepatocytes (PHHs); conditions: protein expression relative to positive control (SEQ ID NO 3282 = 1)
Description: as §1, §2, §3, §4, §5

splenic immune cells = assay: Cre circRNA LNP transfection of splenic immune cells in Ai9 Cre reporter mice (tdTomato); format: in vivo; conditions: 0.5 mg/kg Cre circRNA LNP i.v., 48 hr, named by ionizable lipid, 0.5 mg/kg
Method: Circular RNAs encoding Cre recombinase (Cre) are encapsulated into lipid nanoparticles as previously described. Female, 6-8 week old B6.Cg-Gt(ROSA)26Sortm9(CAG-tdTomato)Hze/J (Ai9) mice were dosed with lipid nanoparticles at 0.5 mg/kg RNA intravenously. Fluorescent tdTomato protein was transcribed and translated in Ai9 mice upon Cre recombination, meaning circular RNAs have been delivered to and translated in tdTomato+ cells. After 48 hr, mice were euthanized and the spleens were harvested, processed into a single cell suspension, and stained with various fluorophore-conjugated antibodies for immunophenotyping via flow cytometry.
Ai9 mice (B6.Cg-Gt(ROSA)26Sortm9(CAG-tdTomato)Hze/J, female, 6-8 weeks, n=3 per group) were injected i.v. with 0.5 mg/kg Cre circRNA LNPs or PBS. Ai9 mice transcribe and translate the fluorescent reporter tdTomato upon Cre recombination; meaning cells which are tdTomato+ have successfully been transfected with Cre circRNA. […] Flow cytometry was performed using an Attune Nxt Flow Cytometer (Thermo).

CCCCCCCCC(CCCCCC)C(=O)OCCCCCCN(CCCC#N)CCCCCCOC(=O)C(CCCCCC)CCCCCCCC (stereo not shown) [Lipid 35]
TCL AVG [Fold Change] [1]: 0.004133 Fold Change
MYO AVG [Fold Change] [2]: 0 Fold Change
PHH AVG [Fold Change] [3]: 0.005378 Fold Change

CCCCCCCCC(CCCCCC)C(=O)OCCCCCCCCCCCCN(CCCO)CCCCCCCCCCCCOC(=O)C(CCCCCC)CCCCCCCC (stereo not shown) [Lipid 38]
TCL AVG [Fold Change] [1]: 0.02186 Fold Change
MYO AVG [Fold Change] [2]: 0.07838 Fold Change
PHH AVG [Fold Change] [3]: 0.2209 Fold Change

CCCCCCCCC(CCCCCC)C(=O)OCCCCCCN(CCCCCCOC(=O)C(CCCCCC)CCCCCCCC)CCCn1ccnc1 (stereo not shown) [Lipid 10a-26]
splenic immune cells expressing tdTomato (splenic immune cells): significantly higher myeloid and T cell transfection compared with Lipid 93-S14; also recorded: effective at delivering circular RNAs to many splenic immune cell subsets

CCCCCCCCC(CCCCCC)C(=O)OCCCCCCN(CCCCCCOC(=O)C(CCCCCC)CCCCCCCC)C(CC)CO (stereo not shown) [Lipid 31]
TCL AVG [Fold Change] [1]: 0.4863 Fold Change
MYO AVG [Fold Change] [2]: 0.5881 Fold Change
PHH AVG [Fold Change] [3]: 0.6943 Fold Change

CCCCCCC(CCCC)COC(=O)CCCCCCCN(CCCCO)CCCCCCCC(=O)OCC(CCCC)CCCCCC (stereo not shown) [Lipid 49]
TCL AVG [Fold Change] [1]: 0.07252 Fold Change
MYO AVG [Fold Change] [2]: 0.1952 Fold Change
PHH AVG [Fold Change] [3]: 0.6215 Fold Change

CCCCCCCCC(CCCCCC)C(=O)OCCCCCCN(CCCCCCOC(=O)C(CCCCCC)CCCCCCCC)CCCCNC(C)=O (stereo not shown) [Lipid 36]
TCL AVG [Fold Change] [1]: 0.0009344 Fold Change
MYO AVG [Fold Change] [2]: 0 Fold Change
PHH AVG [Fold Change] [3]: 0 Fold Change

CCCCCCCCC(CCCCCC)C(=O)OCCCCCCCCCCCCN(CCCCO)CCCCCCCCCCCCOC(=O)C(CCCCCC)CCCCCCCC (stereo not shown) [Lipid 23]
TCL AVG [Fold Change] [1]: 0.002417 Fold Change
MYO AVG [Fold Change] [2]: 0 Fold Change
PHH AVG [Fold Change] [3]: 0.0008387 Fold Change

CCCCCCCCC(CCCCCC)C(=O)OCCCCCCCCCN(CCCCO)CCCCCCCCCOC(=O)C(CCCCCC)CCCCCCCC (stereo not shown) [Lipid 22]
TCL AVG [Fold Change] [1]: 0.0309 Fold Change
MYO AVG [Fold Change] [2]: 0.009137 Fold Change
PHH AVG [Fold Change] [3]: 0.0926 Fold Change

CCCCCCCCCCCCC(CCCCCCCCCC)C(=O)OCCCCCCN(CCCO)CCCCCCOC(=O)C(CCCCCCCCCC)CCCCCCCCCCCC (stereo not shown) [Lipid 44]
TCL AVG [Fold Change] [1]: 0.01421 Fold Change
MYO AVG [Fold Change] [2]: 0 Fold Change
PHH AVG [Fold Change] [3]: 0.01602 Fold Change

CCCCCCCCC(CCCCCC)C(=O)OCCCCCCN(CCCCCCOC(=O)C(CCCCCC)CCCCCCCC)CC(O)CO (stereo not shown) [Lipid 30]
TCL AVG [Fold Change] [1]: 0.373 Fold Change
MYO AVG [Fold Change] [2]: 0.1967 Fold Change
PHH AVG [Fold Change] [3]: 0.3984 Fold Change

CCCCCCCCC(CCCCCC)COC(=O)CCCCCCCCCN(CCCCO)CCCCCCCCCC(=O)OCC(CCCCCC)CCCCCCCC (stereo not shown) [Lipid 21]
TCL AVG [Fold Change] [1]: 0.0748 Fold Change
MYO AVG [Fold Change] [2]: 0.02126 Fold Change
PHH AVG [Fold Change] [3]: 0.1363 Fold Change

CCCCCCCCC(CCCCCC)C(=O)OCCCCCCN(CCCCCCOC(=O)C(CCCCCC)CCCCCCCC)CCCCOC(C)=O (stereo not shown) [Lipid 33]
TCL AVG [Fold Change] [1]: 0.2088 Fold Change
MYO AVG [Fold Change] [2]: 0.3574 Fold Change
PHH AVG [Fold Change] [3]: 0.4409 Fold Change

CCCCCCCCC(CCCCCC)C(=O)OCCCCCCN(CCCCCCOC(=O)C(CCCCCC)CCCCCCCC)CCCOC (stereo not shown) [Lipid 41]
TCL AVG [Fold Change] [1]: 0.02752 Fold Change
MYO AVG [Fold Change] [2]: 0.0004126 Fold Change
PHH AVG [Fold Change] [3]: 0.01033 Fold Change

CCCCCCC(CCCC)C(=O)OCCCCCCN(CCCO)CCCCCCOC(=O)C(CCCC)CCCCCC (stereo not shown) [Lipid 28]
TCL AVG [Fold Change] [1]: 0.1126 Fold Change
MYO AVG [Fold Change] [2]: 0.01764 Fold Change
PHH AVG [Fold Change] [3]: 0.1221 Fold Change

CCCCC(CC)C(=O)OCCCCCCCCCN(CCCCO)CCCCCCCCCOC(=O)C(CC)CCCC (stereo not shown) [Lipid 24]
TCL AVG [Fold Change] [1]: 0.003111 Fold Change
MYO AVG [Fold Change] [2]: 0 Fold Change
PHH AVG [Fold Change] [3]: 0.0000246 Fold Change

Reference: patent publication US20250283073A1 (ORNA THERAPEUTICS, INC., priority 2021, published 2025)
